Results from patent publication US20150164767A1, “Skin Collagen Enhancing Agent” (J-Oil Mills, Inc., priority 2011, published 2015).

What was measured:
[1] = system: normal human dermal fibroblasts; assay: Type I collagen production by normal human dermal fibroblasts (ELISA, per unit protein); format: cell-based; conditions: for production amount of collagen (relative value, no sample = 100, per unit amount of protein): 1.5×10^−5 M, 48 hours culture, n=6, FIG. 1, t-test vs control; for Type I collagen amount (ng/μg protein) (average ± SD): 48 hours, n=6, control 8.91 ± 0.26, significant (<1%)
Method: Skin collagen enhancing activity of menaquinone-7 was compared with those of vitamin K1 and menaquinone-4, using normal human fibroblasts. A menaquinone-7 reagent (Wako Pure Chemical Industries, Ltd.) was used after purity validation by HPLC. The comparison was performed at a setting concentration of 1.5×10^−5 M, which is a maximum solubility of vitamin Ks in a cell culture system. Vitamin K1 (Wako Pure Chemical Industries, Ltd.) and menaquinone-4 (Sigma) were used after purity validation by HPLC.
Normal human dermal fibroblasts (manufactured by Kurabo Industries Ltd.) were inoculated on a 96-well microplate at a cell density of 2.0×10^4 cells per well using a Dulbecco's modified Eagle's medium (DMEM) (Sigma) containing 0.5% by weight of fetal bovine serum (FBS). The medium was replaced, 48 hours after the inoculation, by DMEM containing 0.5% by weight of FBS and menaquinone-7 in a concentration shown in Table 5. A test maximum concentration solution was prepared by dissolving menaquinone-7 in ethanol and diluting it 100 times with a DMEM containing 0.5% FBS. The testing method was confirmed to be valid using magnesium ascorbic acid phosphate (VC-PMg) as a positive control. The medium containing a sample was cultured for 48 hours, and the medium supernatant was collected and subjected to ELISA for measuring the amount of type I collagen. The cells were lysed in a 0.5% Triton X-100 solution, and the protein amount was measured.
A medium and a type I collagen solution for a standard curve were placed on each well of a high-absorption ELISA plate, and coating at 37° C. for 2 hours was performed, followed by blocking with a 1% bovine serum albumin (BSA) solution at 37° C. for 1 hour. Primary antibody reaction was performed using anti-human collagen type I antibody (rabbit) diluted with a 0.3% BSA solution at 37° C. for 1 hour. Secondary antibody reaction was performed using Histofine MAX-PO(R) (rabbit) diluted with a phosphate buffer at 37° C. for 1 hour. A phosphate-citrate buffer (0.1 M, pH 4.0) solution containing 0.3 mg/mL of 2,2′-azinobis(3-ethylbenzothiazoline-6-sulfonic acid)diammounium salt (ABTS) and 0.03% hydrogen peroxide was added thereto, followed by reaction for 20 min The absorbance of the reaction solution was measured at 405 nm with a microplate reader.
The type I collagen amount in the medium was determined from the standard curve prepared by measurement on the same ELISA plate, and the type I collagen amount per unit amount of protein was calculated by dividing the type I collagen amount in the medium by the total protein amount of the cells.
The test was performed at n=6 for each group containing a sample, and the results are each shown as an average +standard deviation. The statistical processing was performed by a Student t-test against the control group not containing the sample, and the symbol * indicates a significance level of less than 1%.
The collagen enhancing activities of menaquinone-7 for human dermal fibroblasts were investigated in the concentration range shown in Table 5. The test of each group containing a sample was performed at n=6, and the results are each shown as an average value. The statistical processing was performed by a Student t-test against the control group not containing the sample, and the symbol * indicates a significance level of less than 1%.

[2] = Vitamin K (MK-7) concentration in rat skin after feeding a menaquinone-7-containing diet; format: in vivo; conditions: Wistar rats, diet with menaquinone-7 150 μg/g, free feeding 90 days, average ± SD
Method: Wistar rats (male, 5-week old) were freely fed with purified feed AIN93G (manufactured by Oriental Yeast) for one week for habituation, and then separated into groups each consisting of three rats so that the total weight of each group was the same. Three rats in each group were freely fed with a rat standard diet (AIN93G) or a menaquinone-7-containing feed (menaquinone-7: 150 μg/g) composed of rat standard diet (AIN93G) and menaquinone-7 for 90 days. Then, vitamin K concentration in the skin was measured. Vitamin K was analyzed by high-performance liquid chromatography with post-column reduction using platinum black and fluorescence detection (Sato, et al., Biochim Biophys. Acta, 1622, 145-150, 2003).

[3] = system: skin collagen; assay: Skin collagen amount in rats fed MK7-containing diets (Sircol Collagen Assay Kit); format: in vivo, Crl:CD(SD)(SPF) rats; conditions: 90 days; for Type I collagen amount (μg/mg wet skin weight) (average ± SD): MK7-free 38.43 ± 4.56, not significant; for Rate of increase of collagen (%): vs MK7-free diet group
Method: Four-week old male Crl:CD(SD)(SPF) rats were habituated after arrival till the start of administration, including one week for quarantine. During the quarantine and habituation, general conditions were observed every day, and the weights were measured on the first day (the day following the arrival), the third day, and the seventh day. The rats were separated into four groups each consisting of five rats so that the total weight of each group was the same.
Rats were freely fed for 90 days with any one of three types of menaquinone-7-containing feeds by adding menaquinone-7 to rat standard diet AIN93G: high MK7 diet (menaquinone-7: 45.4 μg/g diet), moderate MK7 diet (menaquinone-7: 15 μg/g diet), and low MK7 diet (menaquinone-7: 4.54 μg/g diet); or MK7-free diet.
The rats were subjected to fasting on the last day and then dissected. The hair at the abdomen region was carefully shaved with hair clippers, and the skin including the derm was sampled. The skin was cut into about 100 mg pieces and they were exactly weighed. The skin collagen amount was measured with a skin collagen measurement kit (trade name: Sircol Collagen Assay Kit, manufactured by Biocolor). Increased amounts of collagen in three groups fed with the diet containing MK7 were compared with that in the group fed with the MK7-free diet as a control. The statistical processing was performed by a Student t-test. A significance level P<0.05 was determined as to have significant difference. […] In the table, the symbol * means a significant difference.

| MK-7 concentration (ng/g) in skin [2] | Compound | production amount of collagen (relative value, no sample = 100, per unit amount of protein) [1] | production amount of collagen ([1]; 6.0×10^−5 M) | Type I collagen amount (ng/μg protein) (average ± SD) ([1]; 0.5 × 10^−6M) | Type I collagen amount (ng/μg protein) (average ± SD) ([1]; 0.5 × 10^−6M, listed as menaquinone-7) | Type I collagen amount (ng/μg protein) (average ± SD) ([1]; 1 × 10^−5M) | Type I collagen amount (ng/μg protein) (average ± SD) ([1]; 1 × 10^−6M) | Type I collagen amount (ng/μg protein) (average ± SD) ([1]; 3 × 10^−6M) | menaquinone-7 amount necessary for promoting collagen production ([1]; conversion of 0.5×10^−6 M) | menaquinone-7 amount necessary for promoting collagen production ([1]; human dermal fibroblasts, lowest concentration tested) | Type I collagen amount (μg/mg wet skin weight) (average ± SD) ([3]; MK7 4.54 μg/g feed) | Rate of increase of collagen (%) ([3]; MK7 4.54 μg/g feed) | Type I collagen amount (μg/mg wet skin weight) (average ± SD) ([3]; MK7 15.0 μg/g feed) | Rate of increase of collagen (%) ([3]; MK7 15.0 μg/g feed) | Rate of increase of collagen (%) ([3]; MK7 45.4 μg/g feed) | amount of collagen in skin, dose dependence ([3]; oral administration, 4.54 to 45.4 μg/g feed) |
| --- | --- | --- | --- | --- | --- | --- | --- | --- | --- | --- | --- | --- | --- | --- | --- | --- |
|  | CC(C)=CCC/C(C)=C/CC/C(C)=C/CC/C(C)=C/CC1=C(C)C(=O)c2ccccc2C1=O [Menaquinone-4, menaquinone-4, reference compound] | only menaquinone-7 significantly increased | did not increase at all |  |  |  |  |  |  |  |  |  |  |  |  |  |
|  | CC1=C(C/C=C(\C)CCC[C@H](C)CCC[C@H](C)CCCC(C)C)C(=O)c2ccccc2C1=O [vitamin K1, reference compound] | only menaquinone-7 significantly increased |  |  |  |  |  |  |  |  |  |  |  |  |  |  |
| 427 ± 243 ng/g | CC(C)=CCC/C(C)=C/CC/C(C)=C/CC/C(C)=C/CC/C(C)=C/CC/C(C)=C/CC/C(C)=C/CC1=C(C)C(=O)c2ccccc2C1=O [Menaquinone-7, menaquinone-7] | significantly increased |  | 10.66 ± 0.48 ng/μg protein | significantly promotes production of type I collagen | 11.03 ± 0.23 ng/μg protein | 10.26 ± 0.44 ng/μg protein | 10.41 ± 0.49 ng/μg protein | 325 ng/g | 500 nM | 40.97 ± 6.69 μg/mg wet skin weight | 6.6% | 43.33 ± 2.42 μg/mg wet skin weight | 12.8% | 17.6% | tendency of dose-dependently increasing the amount of collagen |
